Reference: patent US20170334919A1, “2-((4-AMINO-3-(3-FLUORO-5-HYDROXYPHENYL)-1H-PYRAZOLO[3,4-D]PYRIMIDIN-1 -YL)METHYL)-3-(2-(TRIFLUORO-MET HYL)BENZYL)QUINAZOLIN-4(3H)-ONE DERIVATIVES AND THEIR USE AS PHOSPHOINOSITIDE 3-KINASE INHIBITORS” (RESPIVERT LTD., priority 2013, published 2017)

How the values were obtained:
[1] = system: LPS-induced airway neutrophilia in mice; test: LPS-induced airway neutrophil accumulation in mice; format: in vivo, BALB/c mice
Experimental: Non-fasted BALB/c mice (6-8 weeks old) were dosed with vehicle or with test compound by intra-tracheal administration (dose volume 20 μL) at time points T=−2 hr, −8 hr, or −12 hr with respect to the start of LPS treatment. The LPS was prepared in a solution of 0.5 mg/mL and aerosolised using a De Vibliss ultrasonic nebuliser 2000 (7 mL during 30 min exposure). At eight hr after LPS challenge, the trachea was cannulated and bronchoalveolar lavage fluid (BALF) extracted by infusing and then withdrawing PBS (1 mL) into the lungs via the tracheal catheter. This procedure was repeated to give a yield of approximately 2 mL lavage fluid. Total cell numbers in the BALF samples were measured using a haemocytometer. Cytospin smears of the BALF samples were prepared by centrifugation at 1200 rpm for 2 min at RT and stained using a DiffQuik stain system (Dade Behring) for differential cell counts. Cells were counted using oil immersion microscopy. Data are expressed as neutrophil number of cells per mL of BALF (mean±S.E.M).

[2] = system: poly-I:C-induced cell accumulation in mice airways; test: Poly-I:C-induced cell accumulation in mice; format: in vivo, A/J mice
Experimental: Specific pathogen-free A/J mice (males, 5 weeks old) were dosed with poly (I:C)-LMW (1 mg/mL, 40 μL) (InvivoGen, San Diego, Calif., USA) intranasally twice daily for 3 days under anaesthasia (3% isoflurane). Test substances were dosed intra-nasally (50 μL in 10% DMSO/isotonic saline vehicle) 2 hr before each poly-I:C treatment. At 24 hr after the last poly-I:C challenge, animals were anesthetized, the trachea was cannulated and bronchial alveolar lavage (BAL) was obtained by instilling into and then withdrawing from the lungs, isotonic saline (100 mL/kg). Total cell numbers in the BALF samples were measured using a haemocytometer under a phase-contrast microscope.
The proportions of alveolar macrophages and neutrophils were determined by FACS analysis using anti-mouse MOMA2-FITC (macrophage) or anti-mouse 7/4-FITC (neutrophil). Cells were suspended in PBS and incubated with anti-MOMA2-FITC (2 μg/mL, Catalogue no SM065F, Acris Antibodies GmbH, Herford, Germany) or anti-7/4-FITC (2 μg/mL, Catalogue no CL050F, Acris Antibodies GmbH, Herford, Germany) for 30 min at 30° C., and then counterstained with propidium iodide (2 μg/mL) to allow exclusion of necrotic cells. The cells were washed with PBS, and transferred to FACS tubes. Samples was set in a flow cytometer (ALTRA II; Beckman Coulter Japan, Tokyo, Japan), and a single-parameter FL2 [PMT2] (FITC) histogram with log x-axis was plotted to illustrate relative intensity of FITC. Data files were stored for subsequent analysis using Kaluza analysis software (ver. 1.2) to calculate the proportion of each cell type.

[3] = 0.2 mg/mL intra-tracheal, pre-dose time 8 hr
[4] = 0.002 mg/mL intra-nasal + Poly I:C
[5] = 0.02 mg/mL intra-nasal + Poly I:C
[6] = 0.2 mg/mL intra-nasal + Poly I:C

COCCOCCOCC#Cc1cccc2nc(Cn3nc(-c4cc(O)cc(F)c4)c4c(N)ncnc43)n(Cc3ccccc3C(F)(F)F)c(=O)c12 [Compound (I), 2-((4-Amino-3-(3-fluoro-5-hydroxyphenyl)-1H-pyrazolo[3,4-d]pyrimidin-1-yl)methyl)-5-(3-(2-(2-methoxyethoxy)ethoxy)prop-1-yn-1-yl)-3-(2-(trifluoromethyl)benzyl)quinazolin-4(3H)-one]
Neutrophil numbers in BALF, % inhibition ([1]; 0.05 mg/mL intra-tracheal, pre-dose time 2 hr): 2.5 (19) %
Neutrophil numbers in BALF, % inhibition ([1]; 0.2 mg/mL intra-tracheal, pre-dose time 2 hr): 1.4 (53) %
Neutrophil numbers in BALF (mean ± SEM) [1, 3]: 9.4 ± 2.0 ×10^5/mL
Neutrophil numbers in BALF, % inhibition [1, 3]: 45%
Neutrophil numbers in BALF, % inhibition ([1]; 0.2 mg/mL intra-tracheal, pre-dose time 12 h): 23%
Neutrophil numbers in BALF, % inhibition ([1]; 1.0 mg/mL intra-tracheal, pre-dose time 2 hr): 68%
Cell numbers in BALF, Macrophages, % inhibition [2, 4]: 49%
Cell numbers in BALF, Neutrophils, % inhibition [2, 4]: 0.3 (43) %
Cell numbers in BALF, Macrophages, % inhibition [2, 5]: 0.3 (69) %
Cell numbers in BALF, Neutrophils, % inhibition [2, 5]: 65%
Cell numbers in BALF, Macrophages, % inhibition [2, 6]: 0.3 (79) %
Cell numbers in BALF, Neutrophils, % inhibition [2, 6]: 0.2 (77) %
potency versus compound A, poly-I:C-induced macrophage and neutrophil accumulation into BALF ([2]; direct comparison, FIG. 1): significantly greater potency than compound A
